{
  "source": "PubChem BioAssay AID1259409",
  "about": "(Chemical Carcinogenesis Research Information System (CCRIS), 2018)",
  "origin": "cited, not measured here",
  "system": "rodent chemically induced tumor inhibition, incidence and multiplicity",
  "assay": "CCRIS tumor inhibitor studies",
  "data": [
    {"smiles": "CCCOC(=O)c1cc(O)c(O)c(O)c1", "values": [
      {"measurement": "tumour outcome (control, treated, inhibition, significance)", "setting": "Carcinogen: 1,2-DIMETHYLHYDRAZINE, 540-73-8, Dose [Inhibitor]: 0, 1% IN DIET BEGINNING 1 WK POST LAST CARCINOGEN DOSE AND CONTINUING FOR 36 WK (STUDY DURATION: 40 WK), Route [Inhibitor]: ORAL, Species: RAT, Strain/Sex: F344/MALE, Target Tissue: Type of Lesion: COLON: ADENOMA, Dose [Carcinogen]: 20 MG/KG 1/WK FOR 4 WK, Promoter: NONE USED", "value": "1/20 (5%), 5/20 (25%), -400%, not calculated"},
      {"measurement": "tumour outcome (control, treated, inhibition, significance)", "setting": "Carcinogen: 1,2-DIMETHYLHYDRAZINE, 540-73-8, Dose [Inhibitor]: 0, 1% IN DIET BEGINNING 1 WK POST LAST CARCINOGEN DOSE AND CONTINUING FOR 36 WK (STUDY DURATION: 40 WK), Route [Inhibitor]: ORAL, Species: RAT, Strain/Sex: F344/MALE, Target Tissue: Type of Lesion: COLON: CARCINOMA, Dose [Carcinogen]: 20 MG/KG 1/WK FOR 4 WK, Promoter: NONE USED", "value": "6/20 (30%), 6/20 (30%), 0%"},
      {"measurement": "tumour outcome (control, treated, inhibition, significance)", "setting": "Carcinogen: 7,12-DIMETHYLBENZ(A)ANTHRACENE, 57-97-6, Dose [Inhibitor]: 0.3% IN HIGH SATURATED FAT DIET (STUDY DURATION: 32 WK), Route [Inhibitor]: ORAL, Species: RAT, Strain/Sex: SPRAGUE-DAWLEY/FEMALE, Target Tissue: Type of Lesion: MAMMARY GLAND: PARENCHYMAL CARCINOMA, Dose [Carcinogen]: 10 MG IN 1 ML CORN OIL ONCE AT 50 D OF AGE, Promoter: NONE USED", "value": "20/30 (67%), 8/30 (27%), 60%, not calculated"},
      {"measurement": "tumour outcome (control, treated, inhibition, significance)", "setting": "Carcinogen: 7,12-DIMETHYLBENZ[A]ANTHRACENE, 57-97-6, Dose [Inhibitor]: 0, 20 UMOL IN 0.4 ML ACETONE 20 MIN PRIOR TO EACH PROMOTER DOSE (STUDY DURATION: 47 WK), Route [Inhibitor]: DERMAL, Species: MOUSE, Strain/Sex: CF-1/FEMALE, Target Tissue: Type of Lesion: SKIN: CARCINOMA, Dose [Carcinogen]: 100 NMOL IN 0.2 ML ACETONE ONCE", "value": "67%, 8%, 88%, not calculated"},
      {"measurement": "tumour outcome (control, treated, inhibition, significance)", "setting": "Carcinogen: 7,12-DIMETHYLBENZ[A]ANTHRACENE, 57-97-6, Dose [Inhibitor]: 0, 20 UMOL IN 0.4 ML ACETONE 20 MIN PRIOR TO EACH PROMOTER DOSE (STUDY DURATION: 47 WK), Route [Inhibitor]: DERMAL, Species: MOUSE, Strain/Sex: CF-1/FEMALE, Target Tissue: Type of Lesion: SKIN: PAPILLOMA, Dose [Carcinogen]: 100 NMOL IN 0.2 ML ACETONE ONCE", "value": "94%, 66%, 30%, not calculated"},
      {"measurement": "tumour outcome (control, treated, inhibition, significance)", "setting": "Carcinogen: 7,12-DIMETHYLBENZ[A]ANTHRACENE, 57-97-6, Dose [Inhibitor]: 0.3% IN HIGH POLYUNSATURATED FAT DIET (STUDY DURATION: 32 WK), Route [Inhibitor]: ORAL, Species: RAT, Strain/Sex: SPRAGUE-DAWLEY/FEMALE, Target Tissue: Type of Lesion: MAMMARY GLAND: PARENCHYMAL CARCINOMA, Dose [Carcinogen]: 10 MG IN 1 ML CORN OIL ONCE AT 50 D OF AGE, 1X, Promoter: NONE USED", "value": "30/30 (100%), 23/30 (77%), 23%, not calculated"},
      {"measurement": "tumour outcome (control, treated, inhibition, significance)", "setting": "Carcinogen: 7,12-DIMETHYLBENZ[A]ANTHRACENE, 57-97-6, Dose [Inhibitor]: 0.3% IN HIGH POLYUNSATURATED FAT DIET DAILY STARTING 29 D BEFORE CARCINOGEN TREATMENT AND CONTINUING FOR THE DURATION OF, Route [Inhibitor]: ORAL, Species: RAT, Strain/Sex: SPRAGUE-DAWLEY/FEMALE, Target Tissue: Type of Lesion: MAMMARY GLAND: ADENOCARCINOMA, Dose [Carcinogen]: 10 MG IN 1 ML STRIPPED CORN OIL ONCE AT AGE 50 D, Promoter: NONE USED", "value": "100%, 70%, 30%, not calculated"},
      {"measurement": "tumour outcome (control, treated, inhibition, significance)", "setting": "Carcinogen: 7,12-DIMETHYLBENZ[A]ANTHRACENE, 57-97-6, Dose [Inhibitor]: 0.3% IN HIGH SATURATED FAT DIET DAILY STARTING 29 D BEFORE CARCINOGEN TREATMENT AND CONTINUING FOR THE DURATION OF THE S, Route [Inhibitor]: ORAL, Species: RAT, Strain/Sex: SPRAGUE-DAWLEY/FEMALE, Target Tissue: Type of Lesion: MAMMARY GLAND: ADENOCARCINOMA, Dose [Carcinogen]: 10 MG IN 1 ML STRIPPED CORN OIL ONCE AT AGE 50 D, Promoter: NONE USED", "value": "65%, 35%, 46%, not calculated"},
      {"measurement": "tumour outcome (control, treated, inhibition, significance)", "setting": "Carcinogen: 7,12-DIMETHYLBENZ[A]ANTHRACENE, 57-97-6, Dose [Inhibitor]: 0.3% IN LOW FAT DIET (STUDY DURATION: 32 WK), Route [Inhibitor]: ORAL, Species: RAT, Strain/Sex: SPRAGUE-DAWLEY/FEMALE, Target Tissue: Type of Lesion: MAMMARY GLAND: PARENCHYMAL CARCINOMA, Dose [Carcinogen]: 10 MG IN 1 ML CORN OIL ONCE AT 50 D OF AGE, Promoter: NONE USED", "value": "7/30 (23%), 4/30 (13%), 43%, not calculated"},
      {"measurement": "tumour outcome (control, treated, inhibition, significance)", "setting": "Carcinogen: 7,12-DIMETHYLBENZ[A]ANTHRACENE, 57-97-6, Dose [Inhibitor]: 0.3% IN LOW FAT DIET DAILY STARTING 29 D BEFORE CARCINOGEN TREATMENT AND CONTINUING FOR THE DURATION OF THE STUDY (STUDY, Route [Inhibitor]: ORAL, Species: RAT, Strain/Sex: SPRAGUE-DAWLEY/FEMALE, Target Tissue: Type of Lesion: MAMMARY GLAND: ADENOCARCINOMA, Dose [Carcinogen]: 10 MG IN 1 ML STRIPPED CORN OIL ONCE AT AGE 50 D, Promoter: NONE USED", "value": "35%, 15%, 57%, not calculated"},
      {"measurement": "tumour outcome (control, treated, inhibition, significance)", "setting": "Carcinogen: 7,12-DIMETHYLBENZ[A]ANTHRACENE, 57-97-6, Dose [Inhibitor]: 1.0% IN POWDERED DIET BEGINNING 1 WK POST CARCINOGEN DOSE FOR 51 WK (STUDY DURATION: 52 WK), Route [Inhibitor]: ORAL, Species: RAT, Strain/Sex: SPRAGUE-DAWLEY/FEMALE, Target Tissue: Type of Lesion: EAR DUCT: BENIGN TUMOR, Dose [Carcinogen]: 2.5 MG/100 G BW IN 0.5 ML SESAME OIL ONCE, Promoter: NONE USED", "value": "7/19 (37%), 3/20 (15%), 59%, not calculated"},
      {"measurement": "tumour outcome (control, treated, inhibition, significance)", "setting": "Carcinogen: 7,12-DIMETHYLBENZ[A]ANTHRACENE, 57-97-6, Dose [Inhibitor]: 1.0% IN POWDERED DIET BEGINNING 1 WK POST CARCINOGEN DOSE FOR 51 WK (STUDY DURATION: 52 WK), Route [Inhibitor]: ORAL, Species: RAT, Strain/Sex: SPRAGUE-DAWLEY/FEMALE, Target Tissue: Type of Lesion: MAMMARY GLAND: CARCINOMA, Dose [Carcinogen]: 2.5 MG/100 G BW IN 0.5 ML SESAME OIL ONCE, Promoter: NONE USED", "value": "6/19 (32%), 1/20 (5%), 84%, p<0.05"},
      {"measurement": "tumour outcome (control, treated, inhibition, significance)", "setting": "Carcinogen: 7,12-DIMETHYLBENZ[A]ANTHRACENE, 57-97-6, Dose [Inhibitor]: 1.0% IN POWDERED DIET BEGINNING 1 WK POST CARCINOGEN DOSE FOR 51 WK (STUDY DURATION: 52 WK), Route [Inhibitor]: ORAL, Species: RAT, Strain/Sex: SPRAGUE-DAWLEY/FEMALE, Target Tissue: Type of Lesion: MAMMARY GLAND: FIBROADENOMA, Dose [Carcinogen]: 2.5 MG/100 G BW IN 0.5 ML SESAME OIL ONCE, Promoter: NONE USED", "value": "15/19 (79%), 4/20 (20%), 75%, p<0.001"}
    ]}
  ]
}
